Measurements taken from ChEMBL document CHEMBL3621085, “Tetrazole regioisomers in the development of nitro group-containing antitubercular agents” (Medchemcomm, 2015).
pIC50: −log10 of the molar value. Values after ≈ are worked out from the molar mass of the structure shown. Active and inactive are the calls of the source. The calls are words filed in the database; no cut-off is given here.

Columns and labels:
Mycobacterium kansasii [1] = experiment: Antimycobacterial activity against Mycobacterium kansasii 6509/96 after 21 days by micromethod; format: functional; details: 6509/96, 504 h
Pseudomonas aeruginosa = experiment: Antibacterial activity against Pseudomonas aeruginosa ATCC 9027 after 24 to 48 hrs by broth micro dilution method; format: functional, organism-based
[2] = system: Staphylococcus epidermidis; experiment: Antibacterial activity against Staphylococcus epidermidis H 6966/08 after 24 to 48 hrs by broth micro dilution method; format: functional, organism-based
Escherichia coli = experiment: Antibacterial activity against Escherichia coli ATCC 8739 after 24 to 48 hrs by broth micro dilution method; format: functional, organism-based
Trichosporon asahii = experiment: Antifungal activity against Trichosporon asahii 1188 after 24 to 48 hrs by broth micro dilution method; format: functional, organism-based
Mycobacterium kansasii [3] = experiment: Antimycobacterial activity against Mycobacterium kansasii 6509/96 after 14 days by micromethod; format: functional; details: 6509/96, 336 h
Klebsiella pneumoniae [4] = experiment: Antibacterial activity against Klebsiella pneumoniae D 11750/08 after 24 to 48 hrs by broth micro dilution method; format: functional, organism-based
Mycobacterium kansasii [5] = experiment: Antimycobacterial activity against Mycobacterium kansasii My 235/80 after 14 days by micromethod; format: functional; details: My 235/80, 336 h
[6] = system: Mycobacterium tuberculosis; experiment: Antimycobacterial activity against Mycobacterium tuberculosis My 331/88 after 21 days by micromethod; format: functional; details: My 331/88, 504 h
Mycobacterium kansasii [7] = experiment: Antimycobacterial activity against Mycobacterium kansasii My 235/80 after 7 days by micromethod; format: functional; details: My 235/80, 168 h
Candida tropicalis = experiment: Antifungal activity against Candida tropicalis 156 after 24 to 48 hrs by broth micro dilution method; format: functional, organism-based
[8] = system: Trichophyton mentagrophytes; experiment: Antifungal activity against Trichophyton mentagrophytes 445 after 72 to 120 hrs by broth micro dilution method; format: functional, organism-based
Mycobacterium kansasii [9] = experiment: Antimycobacterial activity against Mycobacterium kansasii 6509/96 after 7 days by micromethod; format: functional; details: 6509/96, 168 h
Mycobacterium avium [10] = experiment: Antimycobacterial activity against Mycobacterium avium My 330/88 after 14 days by micromethod; format: functional; details: My 330/88, 336 h
Lichtheimia corymbifera = experiment: Antifungal activity against Absidia corymbifera 272 after 24 to 48 hrs by broth micro dilution method; format: functional, organism-based
Pichia kudriavzevii = experiment: Antifungal activity against Candida krusei E28 after 24 to 48 hrs by broth micro dilution method; format: functional, organism-based
Mycobacterium avium [11] = experiment: Antimycobacterial activity against Mycobacterium avium My 330/88 after 21 days by micromethod; format: functional; details: My 330/88, 504 h
Salmonella typhimurium [12] = experiment: Mutagenic activity in Salmonella typhimurium TA98 assessed as induction of reverse mutation at 50 uM; format: toxicity, organism-based; details: salmonella enterica subsp. enterica serovar typhimurium
[13] = Cytotoxicity against CHOK1 cells assessed as viability after 24 hrs by MTT assay; format: cell-based; details: Cricetulus griseus, CHO-K1, 24 h
Candida albicans = experiment: Antifungal activity against Candida albicans ATCC 44859 after 24 to 48 hrs by broth micro dilution method; format: functional, organism-based
Staphylococcus aureus [14] = experiment: Antibacterial activity against methicillin-resistant Staphylococcus aureus H 5996/08 after 24 to 48 hrs by broth micro dilution method; format: functional, organism-based
Nakaseomyces glabratus = experiment: Antifungal activity against Candida glabrata 20/I after 24 to 48 hrs by broth micro dilution method; format: functional, organism-based
[15] = system: Mycobacterium tuberculosis; experiment: Antimycobacterial activity against Mycobacterium tuberculosis My 331/88 after 14 days by micromethod; format: functional; details: My 331/88, 336 h
Mycobacterium kansasii [16] = experiment: Antimycobacterial activity against Mycobacterium kansasii My 235/80 after 21 days by micromethod; format: functional; details: My 235/80, 504 h
Staphylococcus aureus [17] = experiment: Antibacterial activity against Staphylococcus aureus ATCC 6538 after 24 to 48 hrs by broth micro dilution method; format: functional, organism-based
Klebsiella pneumoniae [18] = experiment: Antibacterial activity against ESBL positive Klebsiella pneumoniae J 14368/08 after 24 to 48 hrs by broth micro dilution method; format: functional, organism-based
Enterococcus faecalis = experiment: Antibacterial activity against Enterococcus faecalis J 14365/08 after 24 to 48 hrs by broth micro dilution method; format: functional, organism-based
Aspergillus fumigatus = experiment: Antifungal activity against Aspergillus fumigatus 2318 after 24 to 48 hrs by broth micro dilution method; format: functional, organism-based
Salmonella typhimurium [19] = experiment: Mutagenic activity in Salmonella typhimurium TA100 assessed as induction of reverse mutation at 50 uM; format: toxicity, organism-based; details: salmonella enterica subsp. enterica serovar typhimurium
Klebsiella pneumoniae [20] = experiment: Antibacterial activity against Klebsiella pneumoniae J 14368/08 after 24 to 48 hrs by broth micro dilution method; format: functional, organism-based
Heme oxygenase 1 = target: T1, Heme oxygenase 1 (Homo sapiens, UniProt P09601); experiment: Inhibition of heme oxygenase-1 (unknown origin)
T1 sequence (P09601 whole entry): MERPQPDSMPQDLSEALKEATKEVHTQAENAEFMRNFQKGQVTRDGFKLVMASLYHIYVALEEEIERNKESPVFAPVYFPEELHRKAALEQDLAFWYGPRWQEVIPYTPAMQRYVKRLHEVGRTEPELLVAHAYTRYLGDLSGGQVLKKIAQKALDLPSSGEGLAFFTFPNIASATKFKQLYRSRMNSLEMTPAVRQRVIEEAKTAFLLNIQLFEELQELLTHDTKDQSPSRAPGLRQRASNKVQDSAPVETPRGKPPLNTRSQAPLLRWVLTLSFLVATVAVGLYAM

Row | Compound | MIC (Mycobacterium kansasii [1]) [µM] | Activity (Pseudomonas aeruginosa) | Activity [2] | Activity (Escherichia coli) | Activity (Trichosporon asahii) | MIC (Mycobacterium kansasii [3]) [µM] | Activity (Klebsiella pneumoniae [4]) | MIC (Mycobacterium kansasii [5]) [µM] | MIC [6] [µM] | MIC (Mycobacterium kansasii [7]) [µM] | Activity (Candida tropicalis) | Activity [8] | MIC (Mycobacterium kansasii [9]) [µM] | MIC (Mycobacterium avium [10]) [µM] | MIC (Mycobacterium avium [11]) [µM] | Activity (Salmonella typhimurium [12]) | pIC50 [13] | MIC [15] [µM] | MIC (Mycobacterium kansasii [16]) [µM] | Activity (Salmonella typhimurium [19]) | also measured
1 | O=[N+]([O-])c1cc(C[Se]c2nnn(Cc3ccccc3)n2)cc([N+](=O)[O-])c1 | 2 (≈ 0.839 µg/mL) | inactive | inactive | inactive | inactive | 1 (≈ 0.419 µg/mL) | inactive | 1 (≈ 0.419 µg/mL) | 1 (≈ 0.419 µg/mL) | 1 (≈ 0.419 µg/mL) | inactive | inactive | 1 (≈ 0.419 µg/mL) | 16 (≈ 6.71 µg/mL) | 32 (≈ 13.4 µg/mL) | Toxic | 3.87 | 1 (≈ 0.419 µg/mL) | 1 (≈ 0.419 µg/mL) | Toxic | Activity (Lichtheimia corymbifera): inactive; Activity (Pichia kudriavzevii): inactive; Activity (Candida albicans): inactive; Activity (Staphylococcus aureus [14]): inactive; Activity (Nakaseomyces glabratus): inactive; Activity (Staphylococcus aureus [17]): inactive; Activity (Klebsiella pneumoniae [18]): inactive; Activity (Enterococcus faecalis): inactive; Activity (Aspergillus fumigatus): inactive; Activity (Klebsiella pneumoniae [20]): inactive
2 | O=[N+]([O-])c1cc(CSc2nnnn2Cc2ccc(Cl)cc2)cc([N+](=O)[O-])c1 | 8 (≈ 3.25 µg/mL) |  |  |  |  | 8 (≈ 3.25 µg/mL) |  | 2 (≈ 0.814 µg/mL) | 4 (≈ 1.63 µg/mL) | 2 (≈ 0.814 µg/mL) |  |  | 4 (≈ 1.63 µg/mL) | 125 (≈ 50.9 µg/mL) | 125 (≈ 50.9 µg/mL) | Toxic | 4.03 | 2 (≈ 0.814 µg/mL) | 4 (≈ 1.63 µg/mL) | Toxic | 
3 | O=C(CCc1ccccc1)Cn1cnnn1 |  |  |  |  |  |  |  |  |  |  |  |  |  |  |  |  |  |  |  |  | pIC50 (Heme oxygenase 1): 5.59
4 | O=[N+]([O-])c1cc(CSc2nnnn2Cc2ccccc2)cc([N+](=O)[O-])c1 | 4 (≈ 1.49 µg/mL) | inactive | inactive | inactive | inactive | 4 (≈ 1.49 µg/mL) | inactive | 8 (≈ 2.98 µg/mL) | 2 (≈ 0.745 µg/mL) | 2 (≈ 0.745 µg/mL) | inactive | inactive | 2 (≈ 0.745 µg/mL) | 250 (≈ 93.1 µg/mL) | 250 (≈ 93.1 µg/mL) | Non-toxic | 4.23 | 1 (≈ 0.372 µg/mL) | 8 (≈ 2.98 µg/mL) | Non-toxic | Activity (Lichtheimia corymbifera): inactive; Activity (Pichia kudriavzevii): inactive; Activity (Candida albicans): inactive; Activity (Staphylococcus aureus [14]): inactive; Activity (Nakaseomyces glabratus): inactive; Activity (Staphylococcus aureus [17]): inactive; Activity (Klebsiella pneumoniae [18]): inactive; Activity (Enterococcus faecalis): inactive; Activity (Aspergillus fumigatus): inactive; Activity (Klebsiella pneumoniae [20]): inactive
5 | O=[N+]([O-])c1cc(CSc2nnn(Cc3ccccc3)n2)cc([N+](=O)[O-])c1 | 8 (≈ 2.98 µg/mL) | inactive | inactive | inactive | inactive | 4 (≈ 1.49 µg/mL) | inactive | 16 (≈ 5.96 µg/mL) | 1 (≈ 0.372 µg/mL) | 8 (≈ 2.98 µg/mL) | inactive | inactive | 4 (≈ 1.49 µg/mL) | 62 (≈ 23.1 µg/mL) | 125 (≈ 46.5 µg/mL) | Toxic | 4.39 | 1 (≈ 0.372 µg/mL) | 16 (≈ 5.96 µg/mL) | Toxic | Activity (Lichtheimia corymbifera): inactive; Activity (Pichia kudriavzevii): inactive; Activity (Candida albicans): inactive; Activity (Staphylococcus aureus [14]): inactive; Activity (Nakaseomyces glabratus): inactive; Activity (Staphylococcus aureus [17]): inactive; Activity (Klebsiella pneumoniae [18]): inactive; Activity (Enterococcus faecalis): inactive; Activity (Aspergillus fumigatus): inactive; Activity (Klebsiella pneumoniae [20]): inactive
6 | O=[N+]([O-])c1cc(CSc2nnn(Cc3ccc(Cl)cc3)n2)cc([N+](=O)[O-])c1 | 32 (≈ 13 µg/mL) |  |  |  |  | 16 (≈ 6.51 µg/mL) |  | 8 (≈ 3.25 µg/mL) | 2 (≈ 0.814 µg/mL) | 4 (≈ 1.63 µg/mL) |  |  | 16 (≈ 6.51 µg/mL) | 16 (≈ 6.51 µg/mL) | 16 (≈ 6.51 µg/mL) | Toxic | 3.52 | 1 (≈ 0.407 µg/mL) | 16 (≈ 6.51 µg/mL) | Toxic | 
7 | O=[N+]([O-])c1cc(C[Se]c2nnnn2Cc2ccccc2)cc([N+](=O)[O-])c1 | 8 (≈ 3.35 µg/mL) | inactive | inactive | inactive | inactive | 8 (≈ 3.35 µg/mL) | inactive | 4 (≈ 1.68 µg/mL) | 2 (≈ 0.839 µg/mL) | 2 (≈ 0.839 µg/mL) | inactive | inactive | 4 (≈ 1.68 µg/mL) | 32 (≈ 13.4 µg/mL) | 32 (≈ 13.4 µg/mL) | Toxic | 4.15 | 1 (≈ 0.419 µg/mL) | 4 (≈ 1.68 µg/mL) | Toxic | Activity (Lichtheimia corymbifera): inactive; Activity (Pichia kudriavzevii): inactive; Activity (Candida albicans): inactive; Activity (Staphylococcus aureus [14]): inactive; Activity (Nakaseomyces glabratus): inactive; Activity (Staphylococcus aureus [17]): inactive; Activity (Klebsiella pneumoniae [18]): inactive; Activity (Enterococcus faecalis): inactive; Activity (Aspergillus fumigatus): inactive; Activity (Klebsiella pneumoniae [20]): inactive
